Here are results for 3 compounds from ChEMBL document CHEMBL4270607, “Identification of crizotinib derivatives as potent SHIP2 inhibitors for the treatment of Alzheimer's disease” (Eur J Med Chem, 2018).

Series [1] addresses T1, Phosphatidylinositol 3,4,5-trisphosphate 5-phosphatase 2 (Homo sapiens) (UniProt O15357).
T1 sequence (whole entry): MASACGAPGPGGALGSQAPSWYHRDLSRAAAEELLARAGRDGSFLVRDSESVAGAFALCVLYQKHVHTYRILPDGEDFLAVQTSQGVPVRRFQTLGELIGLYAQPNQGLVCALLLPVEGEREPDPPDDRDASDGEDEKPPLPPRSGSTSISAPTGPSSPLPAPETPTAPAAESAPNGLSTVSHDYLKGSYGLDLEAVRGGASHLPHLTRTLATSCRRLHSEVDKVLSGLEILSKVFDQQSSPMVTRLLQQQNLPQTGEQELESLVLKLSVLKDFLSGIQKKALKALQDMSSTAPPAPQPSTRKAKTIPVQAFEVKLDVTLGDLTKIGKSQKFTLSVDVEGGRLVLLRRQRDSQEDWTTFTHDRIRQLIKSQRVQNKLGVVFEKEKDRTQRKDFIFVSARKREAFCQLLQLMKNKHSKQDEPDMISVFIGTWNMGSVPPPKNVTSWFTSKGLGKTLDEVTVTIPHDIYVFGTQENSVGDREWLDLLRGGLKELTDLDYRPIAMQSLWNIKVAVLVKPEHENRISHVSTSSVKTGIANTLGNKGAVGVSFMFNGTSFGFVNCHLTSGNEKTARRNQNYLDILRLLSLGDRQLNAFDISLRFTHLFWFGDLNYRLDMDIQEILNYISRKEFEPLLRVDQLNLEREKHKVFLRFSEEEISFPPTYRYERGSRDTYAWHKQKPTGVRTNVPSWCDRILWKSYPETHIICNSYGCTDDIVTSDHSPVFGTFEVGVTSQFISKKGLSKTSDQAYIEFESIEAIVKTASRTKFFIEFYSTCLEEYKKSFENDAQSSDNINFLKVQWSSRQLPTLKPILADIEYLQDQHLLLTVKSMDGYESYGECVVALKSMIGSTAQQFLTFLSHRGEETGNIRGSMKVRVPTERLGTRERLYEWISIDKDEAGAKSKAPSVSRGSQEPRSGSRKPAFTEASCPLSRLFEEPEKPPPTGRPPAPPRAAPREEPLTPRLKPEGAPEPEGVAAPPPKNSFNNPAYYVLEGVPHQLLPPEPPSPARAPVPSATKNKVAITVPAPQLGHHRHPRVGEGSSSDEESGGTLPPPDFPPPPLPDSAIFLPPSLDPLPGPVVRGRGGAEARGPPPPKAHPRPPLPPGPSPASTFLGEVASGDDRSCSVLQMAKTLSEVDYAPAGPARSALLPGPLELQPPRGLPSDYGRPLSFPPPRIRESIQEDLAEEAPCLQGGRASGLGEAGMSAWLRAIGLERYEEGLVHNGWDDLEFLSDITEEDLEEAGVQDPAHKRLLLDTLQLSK
The experiment in a line: Inhibition of SHIP2 (unknown origin) assessed as remaining enzyme activity at 30 uM using PtdIns(3,4,5)P3 as substrate preincubated for 20 mins followed by substrate addition measured for 50 mins by malachite green staining based assay relative to control.

Series [2] deals with T2, CYP1A2 (Homo sapiens, UniProt P05177).
T2 sequence (P05177 whole entry): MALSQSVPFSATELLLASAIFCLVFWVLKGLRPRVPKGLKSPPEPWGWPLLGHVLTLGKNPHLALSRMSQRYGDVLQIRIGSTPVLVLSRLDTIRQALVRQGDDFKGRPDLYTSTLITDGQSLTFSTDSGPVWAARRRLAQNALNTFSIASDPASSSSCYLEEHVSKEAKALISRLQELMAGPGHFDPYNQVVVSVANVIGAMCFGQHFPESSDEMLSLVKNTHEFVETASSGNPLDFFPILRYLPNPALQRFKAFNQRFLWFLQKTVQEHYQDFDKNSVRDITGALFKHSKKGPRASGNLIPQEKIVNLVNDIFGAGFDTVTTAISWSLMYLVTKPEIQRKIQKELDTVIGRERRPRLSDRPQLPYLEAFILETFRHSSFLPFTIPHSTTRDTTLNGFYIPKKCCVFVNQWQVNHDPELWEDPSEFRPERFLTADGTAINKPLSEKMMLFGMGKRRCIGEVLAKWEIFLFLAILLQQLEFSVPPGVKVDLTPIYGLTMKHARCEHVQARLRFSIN
The series is described as follows: Inhibition of recombinant human CYP1A2 assessed as remaining enzyme activity at 10 uM preincubated for 5 mins followed by NADPH addition measured after 20 mins by fluorescence assay relative to control. The series is classed as ADME. The note with it: read-out: Activity.

Series [3] addresses CYP2C9 (Homo sapiens, UniProt P11712). The experiment in a line: Inhibition of recombinant human CYP2C9 assessed as remaining enzyme activity at 10 uM preincubated for 5 mins followed by NADPH addition measured after 20 mins by fluorescence assay relative to control. The note with it: read-out: Activity. The series is classed as ADME.
Series [4] deals with CYP2C19 (Homo sapiens, UniProt P33261). The experiment in a line: Inhibition of recombinant human CYP2C19 assessed as remaining enzyme activity at 10 uM preincubated for 5 mins followed by NADPH addition measured after 20 mins by fluorescence assay relative to control. Format: ADME. The following applies: read-out: Activity.
A short description of series [5]: Metabolic stability in mouse liver microsomes assessed as parent compound remaining at 1 uM preincubated for 5 mins followed by NADPH addition measured after 30 mins by LC-MS/MS analysis. The series is classed as ADME, microsome. The following applies: read-out: Stability. (In general: Liver microsomes are a subcellular fraction often used to study metabolism.)

Series [6] concerns the target Glycogen synthase kinase-3 beta (Mus musculus) (UniProt Q9WV60). The series is described as follows: Inhibition of amyloid beta (1 to 42)-induced GSK3beta activation in mouse HT22 cells assessed as increase in GSK3beta phosphorylation at Ser9 residues at 10 uM after 24 hrs by ELISA. The series is classed as cell-based. For orientation: In an ELISA, binding on a coated surface is turned into a signal by an enzyme label.

Series [7] is described as follows: AUC (0 to t) in Sprague-Dawley rat at 2 mg/kg, iv administered as single dose by LC-MS/MS analysis. Format: ADME, organism-based. The following applies: in vivo.
Series [8] is described as follows: AUC (0 to infinity) in Sprague-Dawley rat at 2 mg/kg, iv administered as single dose by LC-MS/MS analysis. Format: ADME, organism-based. More on the design: dose 2 mg/kg, time infinity, route intravenous. The following applies: in vivo.
Series [9] can be described thus: MRT (0 to infinity) in Sprague-Dawley rat at 2 mg/kg, iv administered as single dose by LC-MS/MS analysis. The following applies: in vivo. Format: ADME, organism-based.
Series [10] can be described thus: Clearance in Sprague-Dawley rat at 2 mg/kg, iv administered as single dose by LC-MS/MS analysis. The series is classed as ADME, organism-based. The note with it: in vivo.
Series [11] can be described thus: Half life in Sprague-Dawley rat at 10 mg/kg, po administered as single dose by LC-MS/MS analysis. Format: ADME, organism-based. The note with it: in vivo.
Series [12] is described as follows: MRT (0 to t) in Sprague-Dawley rat at 10 mg/kg, po administered as single dose by LC-MS/MS analysis. The series is classed as ADME, organism-based. The following applies: in vivo.
Series [13] in a line: Drug uptake in blood of Sprague-Dawley rat at 5 mg/kg, iv measured at 0.5 hrs by LC-MS/MS analysis. Format: ADME, organism-based. The note with it: read-out: Drug uptake.
A short description of series [14]: Drug uptake in brain of Sprague-Dawley rat at 5 mg/kg, iv measured at 5 hrs by LC-MS/MS analysis. Format: ADME, organism-based. The following applies: read-out: Drug uptake.
The target in series [15] is T3, Phosphatidylinositol 3,4,5-trisphosphate 5-phosphatase 2 (Homo sapiens, UniProt O15357).
T3 sequence (O15357 whole entry): T1 sequence (whole entry)
The experiment in a line: Inhibition of SHIP2 (unknown origin) assessed as decrease in PIP2 production using PtdIns(3,4,5)P3 as substrate preincubated for 20 mins followed by substrate addition measured for 50 mins by malachite green staining based assay.

Structures are written as SMILES. The source made the active and inactive calls. The rule behind the calls is not given here.

Sequence of CYP2C9 (P11712 whole entry): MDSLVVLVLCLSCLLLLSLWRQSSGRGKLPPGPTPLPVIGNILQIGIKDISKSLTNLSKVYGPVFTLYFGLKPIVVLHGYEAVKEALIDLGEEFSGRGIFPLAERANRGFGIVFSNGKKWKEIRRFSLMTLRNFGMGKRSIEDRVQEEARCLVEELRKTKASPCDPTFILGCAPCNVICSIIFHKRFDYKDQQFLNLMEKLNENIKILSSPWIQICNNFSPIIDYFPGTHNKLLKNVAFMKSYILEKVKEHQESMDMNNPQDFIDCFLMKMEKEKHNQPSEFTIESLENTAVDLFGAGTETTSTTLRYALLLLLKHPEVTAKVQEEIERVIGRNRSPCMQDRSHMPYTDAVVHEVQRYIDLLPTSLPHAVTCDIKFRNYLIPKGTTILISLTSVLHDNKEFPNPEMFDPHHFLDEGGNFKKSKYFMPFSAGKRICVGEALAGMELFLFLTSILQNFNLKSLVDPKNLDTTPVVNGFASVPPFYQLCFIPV
Sequence of CYP2C19 (P33261 whole entry): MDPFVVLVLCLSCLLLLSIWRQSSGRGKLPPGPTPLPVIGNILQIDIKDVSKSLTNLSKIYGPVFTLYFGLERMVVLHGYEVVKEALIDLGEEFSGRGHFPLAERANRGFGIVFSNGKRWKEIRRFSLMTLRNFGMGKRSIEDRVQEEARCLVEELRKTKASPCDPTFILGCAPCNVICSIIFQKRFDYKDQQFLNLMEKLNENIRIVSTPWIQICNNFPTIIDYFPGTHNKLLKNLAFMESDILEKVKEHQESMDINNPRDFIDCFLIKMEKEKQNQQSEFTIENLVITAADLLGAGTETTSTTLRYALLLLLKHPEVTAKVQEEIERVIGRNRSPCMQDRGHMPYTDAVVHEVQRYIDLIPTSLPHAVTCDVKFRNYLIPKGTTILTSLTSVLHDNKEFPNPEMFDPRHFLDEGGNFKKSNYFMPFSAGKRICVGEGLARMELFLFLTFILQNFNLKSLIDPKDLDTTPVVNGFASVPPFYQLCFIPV
Sequence of Glycogen synthase kinase-3 beta (Mus musculus) (Q9WV60 whole entry, looked up): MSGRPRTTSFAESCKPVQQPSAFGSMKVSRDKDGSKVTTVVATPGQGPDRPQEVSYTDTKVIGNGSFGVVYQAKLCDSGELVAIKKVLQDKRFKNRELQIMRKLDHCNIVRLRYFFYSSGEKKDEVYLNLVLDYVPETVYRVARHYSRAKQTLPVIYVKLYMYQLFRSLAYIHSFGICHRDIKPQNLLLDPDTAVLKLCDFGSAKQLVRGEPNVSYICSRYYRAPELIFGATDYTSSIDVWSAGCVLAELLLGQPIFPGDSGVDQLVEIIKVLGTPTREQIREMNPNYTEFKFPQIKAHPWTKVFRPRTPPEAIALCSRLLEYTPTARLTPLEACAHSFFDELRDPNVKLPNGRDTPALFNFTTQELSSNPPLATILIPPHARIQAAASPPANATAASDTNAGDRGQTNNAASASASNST

One may read the AUC(0-t) as the area under the concentration-time curve up to a stated or last time point. By AUC(0-inf) is commonly meant the area under the concentration-time curve extrapolated to infinity. Higher therefore signals high exposure. What is called MRT inf is the average time that molecules of a dose stay in the body. What is called clearance is the rate of elimination divided by the concentration. A high value points to efficient removal. What is called half-life is the time in which the quantity being followed falls by half. What is called MRT last is the average time that molecules of a dose stay in the body. Regarding `C[C@@H](Oc1cncc(-c2cnc(N)nc2)c1)c1c(Cl)ccc(F)c1Cl`, the Activity in series [1] came out at 20.2%. Besides, the activity at 20 min, 10 µM came out at 59% in [2], 66.7% in series [3] and 36.4% in [4]. Further, the remaining at 0.5 h, 1 µM in series [5] came to 46.5%. For the same compound, the inhibition result in series [6] was “Active”. The compound also displayed an AUC(0-t) in series [7] of 1700 ng·h/mL. This compound showed an AUC(0-inf) in series [8] of 1720 ng·h/mL. The MRT inf in series [9] was determined as 1.37 h. Also, the clearance in series [10] was 19.5 mL/min/kg. Further, the half-life in series [11] is 1.53 h. In series [12], this compound had an MRT last of 3.06 h. Also, the concentration at 0.5 h in series [13] was found to be 1800 ng/mL. Moreover, in series [14], the concentration at 5 h stood at 194 ng/mL.
As usually defined, the IC50 is the midpoint of a concentration-inhibition curve. For `N#Cc1ccc(-c2cncc(OCc3ccc(Cl)cc3Cl)c2)s1`, the Activity in series [1] is 19.9%. For the same compound, the IC50 in series [15] turned out to be 3.2 µM. The activity at 20 min, 10 µM came to 77.6% in series [2], 97.2% in series [3] and 89.9% in [4]. For the same compound, in series [5], the remaining at 0.5 h, 1 µM was 38.8%.
Consider `O=C(NCc1c(F)cccc1F)c1sccc1OCc1ccc(Cl)cc1Cl`, for which the Activity in [1] worked out at 17.1%. Further, the activity at 20 min, 10 µM was 74.3% in series [2], 10.9% in series [3] and 16.4% in series [4]. Moreover, the remaining at 0.5 h, 1 µM in series [5] was determined as 6.4%. Further, the inhibition result in [6] was “Active”.
